# Results reported in patent publication EP4763838A1, “COMPOUND AND USE THEREOF” (Ocean University of China, priority 2023, dated 2025).
# Several values for one entry are separate records, joined by “and”; a condition that tells them apart may be missing. Identical values can stand only once. Counter-ions that a name gives are not always drawn.
# Target: T1, E3 ubiquitin ligase CRBN (Homo sapiens, UniProt Q96SW2)
# T1 construct: purchased PE (PerkinElmer) 64BDCRBNPEG
# Assay: Binding activity to E3 ubiquitin ligase CRBN (HTRF competitive binding with XL665-labeled thalidomide, Cereblon binding kit)
# Settings: competition with XL665-labeled thalidomide for GST-labelled CRBN protein, 3 h at room temperature
# Protocol: The binding activity of the compound disclosed in the present patent to the E3 ubiquitin ligase CRBN was determined by competitive binding of the disclosed compound with XL665-labeled thalidomide to the CRBN protein, thereby preventing the occurrence of fluorescence resonance energy transfer (FRET). Accordingly, the binding affinity of the compound to the CRBN protein was determined.
# CRBN binding activity test kit (CEREBLON BINDING KITS (PE, 64BDCRBNPEG)).
# The assay was based on a homogeneous time-resolved fluorescence (HTRF) technology. When a donor and an acceptor were in close proximity, the donor transferred energy to the acceptor so that the acceptor was excited to emit an emission light 665 nm.
# The donor used in the kit of the present disclosure was a europium-labeled GST antibody (GST Eu Cryptate Antibody), and the acceptor was thalidomide labeled with XL665 (Thalidomide-Red reagent). The donor bound to the CRBN protein comprising a GST label. The compound disclosed in the present patent competitively bound to the CRBN protein with thalidomide. The binding activity of the compound was determined according to the fluorescence value emitted by the acceptor at 665 nm. The stronger binding force of the compound indicated the weaker signal.
# The donor and the acceptor were diluted 50-fold respectively by using a kit buffer (PROTAC binding buffer 1). The CRBN protein was diluted 45-fold. The 8 mM solution of the compound disclosed in the present patent was diluted 10-fold with 1X diluent from the kit, followed by 5-fold serial dilutions for a total of 7 consecutive dilutions.
# 5 µl of compound, 5 µl of diluted CRBN protein and 10 µl of donor-acceptor isovolumetric mixture were sequentially added to each well of a white 384-well plate (PE, Part number:6008280). The above system was incubated for 3 h at room temperature.
# A ratio of acceptor to donor emission signals for each individual well was calculated. Ratio = signal value at 665 nm/signal value at 620 nm * 10^4 Coefficient of variation (CV) = standard deviation (SD)/average Ratio × 100 [formula]
# The IC50 value was calculated based on the compound concentration, Ratio and the coefficient of variation by using GraphPad Prism. Table 10 Binding activity of compounds 1-18 to E3 ubiquitin ligase CRBN
row,SMILES,IC50
1,"CCc1cc(C2CCC(=O)NC2=O)nnc1N1CCNCC1 (stereo not shown) [Compound 22, 3-(5-ethyl-6-(piperazin-1-yl)pyridazin-3-yl)piperidine-2,6-dione hydrochloride salt]",> 50 µM
2,"CC(C)c1cc(C2CCC(=O)NC2=O)nnc1N1CCNCC1 (stereo not shown) [Compound 23, 3-(5-isopropyl-6-(piperazin-1-yl)pyridazin-3-yl)piper idine-2,6-dione hydrochloride salt]",100 µM
3,"O=C1CCC(c2cc(C3CC3)c(N3CCNCC3)nn2)C(=O)N1 (stereo not shown) [Compound 24, 3-(5-cyclopropyl-6-(piperazin-1-yl)pyridazin-3-yl)pip eridine-2,6-dione hydrochloride salt]",> 50 µM
4,"O=C1CCC(c2cc(F)c(N3CCNCC3)nn2)C(=O)N1 (stereo not shown) [Compound 25, 3-(5-fluoro-6-(piperazin-1-yl)pyridazin-3-yl)piperidine-2,6-dione hydrochloride salt]",50 µM
5,"N#Cc1cc(C2CCC(=O)NC2=O)nnc1N1CCNCC1 (stereo not shown) [Compound 26, 6-(2,6-dioxopiperidin-3-yl) -3-(piperazin-1-yl)pyridazine-4-carbonitrile hydrochloride salt]",50 µM
6,"O=C1CCC(c2cc(C(F)(F)F)c(N3CCNCC3)nn2)C(=O)N1 (stereo not shown) [Compound 27, 3-(6-(piperazin-1-yl)-5-(trifluoromethyl)pyridazin-3-yl)piperidine-2,6-dione hydrochloride salt]",50 µM
7,"COc1cc(C2CCC(=O)NC2=O)nnc1N1CCNCC1 (stereo not shown) [Compound 28, 3-(5-methoxy-6-(piperazin-1-yl)pyridazin-3-yl)piper idine-2,6-dione hydrochloride salt]",50 µM
8,"Nc1cc(C2CCC(=O)NC2=O)nnc1N1CCNCC1 (stereo not shown) [Compound 29, 3-(5-amino-6-(piperazin-1-yl)pyridazin-3-yl)piperidine-2,6-dione hydrochloride salt]",50 µM
9,"Cc1c(C2CCC(=O)NC2=O)nnc(N2CCNCC2)c1C (stereo not shown) [Compound 33, 3-(4,5-dimethyl-6-(piperazin-1-yl)pyridazin-3-yl)pip eridine-2,6-dione hydrochloride salt]",50 µM
10,"O=C1CCC(F)(c2ccc(N3CCNCC3)nn2)C(=O)N1 (stereo not shown) [Compound 38, 3-fluoro-3-(6-(piperazin-1-yl)pyridazin-3-yl)piperidine-2,6-dione hydrochloride salt]",50 µM
11,"[2H]C1(c2ccc(N3CCNCC3)nn2)CCC(=O)NC1=O (stereo not shown) [Compound 39, 3-(6-(piperazin-1-yl)pyridazin-3-yl)piperidine-2,6-dione-3-dhydrochloride salt]",50 µM
12,"O=C1CCN(c2ccc(N3CCNCC3)nn2)C(=O)N1 [Compound 40, 1-(6-(piperazin-1-yl)pyridazin-3-yl)dihydropyrimidine-2,4(1H,3H)-dione hydrochloride salt]",50 µM
13,"COc1nnc(C2CCC(=O)NC2=O)cc1N1CCNCC1 (stereo not shown) [Compound 41, 3-(6-methoxy-5-(piperazin-1-yl)pyridazin-3-yl)piper idine-2,6-dione hydrochloride salt]",50 µM
14,"CN(C)c1nnc(C2CCC(=O)NC2=O)cc1N1CCNCC1 (stereo not shown) [Compound 42, 3-(6-(dimethylamino)-5-(piperazin-1-yl)pyridazin-3-yl)piperidine-2,6-dione hydrochloride salt]",50 µM
15,"CN1C(=O)CCC(c2ccc(N3CCNCC3)nn2)C1=O (stereo not shown) [Compound 43, 1-methyl-3-(6-(piperazin-1-yl)pyridazin-3-yl)piperidine-2,6-dione hydrochloride salt]",> 100 µM

# Same assay, conditions: competition with XL665-labeled thalidomide for GST-labelled CRBN protein, 3 h at room temperature, read-out: IC50
row,IC50,SMILES
1,> 50 µM and 100 µM,"CN(C)Cc1cc(C2CCC(=O)NC2=O)nnc1N1CCNCC1 (stereo not shown) [Compound 30, 3-(5-((dimethylamino)methyl)-6-(piperazin-1-yl)pyridazin-3-yl)piperidine-2,6-dione bis-hydrochloride salt]"

# Target: T2, androgen receptor (AR) (Homo sapiens, UniProt P10275, T878A)
# T2 construct: endogenous in cells; host or cells: LNCaP
# Assay: Reduction of androgen receptor (AR) expression levels in LNCaP cells (Western blot, DC50 and Dmax)
# Assay type: cell-based
# Settings: 24 h of treatment, 0.01, 0.1, 1 and 10 µM, α-tubulin internal reference
# Protocol: The human prostate cancer cell line LNCaP cells selected in this experiment were cultured in an RPMI-1640 culture medium containing 10% fetal bovine serum (Gibco, USA) in an incubator under the conditions of 37°C, 5% CO2 and 95% humidity. When the growth density reached 80%, the cells were inoculated into a 6-well plate with 5×10^5 cells per well. After culturing for 24 h, the culture medium was replaced with a culture medium containing the compounds so that the final concentrations of the compounds were 0.01, 0.1, 1 and 10 µM. After 24 h of treatment, the supernatant was removed, the cells were washed twice with PBS, and a RIPA lysis buffer containing a protease inhibitor and a phosphatase inhibitor was added to the cells. After lysis and centrifugation, the total protein extract was obtained. The concentration of the protein in the extract was determined by using the BCA method.
# Protein electrophoresis was performed by using SDS-PAGE, followed by electrotransfer at a constant current of 200 mA for 90 min to transfer proteins onto the PVDF membrane. The PVDF membrane was placed in 5% skim milk and blocked for 1 h at room temperature. An anti-Androgen Receptor antibody [EPR1535(2)] (ab133273)(1:10000) was added for incubation overnight at 4°C. The membrane was washed with TBST for 3 times, with 10 min each time. The mixture of the membrane and a secondary antibody were incubated for 60 min at room temperature. The membrane was washed with TBST for 3 times, with 10 min each time. The ECL light-emitting liquid was dropwise added for exposure. Each sample was simultaneously detected using α-tubulin protein as an internal reference. The protein profile was analyzed for grayscale values using analysis software ImageJ. The gray scale correction value of each sample was calculated by using the formula: gray scale correction value = (gray scale value of the target protein/gray scale value of the corresponding internal reference) […] 10^3. Then, the calculated gray scale correction value was compared with a control gray scale correction value to calculate a degradation rate. Then, nonlinear curve fitting was performed on a logarithmic concentration-inhibition rate using Prism to obtain the DC50 and Dmax values of the compound.
# Table 14 summarizes the evaluation of protein degraders PRTA-01 to 06 in reducing AR protein expression levels. DC50 represents the concentration of the protein degrader when it induces AR protein degradation to 50% of the initial level, and the level is classified as A (DC50<1 µM), B (DC50 1~10 µM), or C (DC50>10 µM). Dmax represents the proportion of the maximum degree of […] protein degradation induced by the protein degrader to the total AR protein amount, with the level graded as A (Dmax>85%), B (Dmax85-50%), or C (Dmax<50%). Table 14 Evaluation of protein degraders PRTA-01 to 06 in reducing AR protein expression levels
DC50,Dmax,SMILES
< 1 µM,50 to 85%,N#Cc1ccc(O[C@H]2CC[C@H](NC(=O)c3ccc(N4CCN(CC5CCN(c6ccc(C7CCC(=O)NC7=O)nn6)CC5)CC4)cc3)CC2)cc1Cl (stereo partly shown) [PRTA-01]
< 1 µM,> 85%,N#Cc1ccc(OC2CCC(NC(=O)c3ccc(N4CCC(CN5CCN(c6ccc(C7CCC(=O)NC7=O)nn6)CC5)CC4)nn3)CC2)cc1Cl (stereo not shown) [PRTA-02]
< 1 µM,> 85%,N#Cc1ccc(O[C@H]2CC[C@H](NC(=O)c3ccc(N4CCC(CN5CCN(c6ccc(N7CCC(=O)NC7=O)nn6)CC5)CC4)nn3)CC2)cc1Cl [PRTA-03]
1 to 10 µM,50 to 85%,Cc1cc(N2CCN(CC3CCN(c4ccc(C(=O)N[C@H]5CC[C@H](Oc6ccc(C#N)c(Cl)c6)CC5)nn4)CC3)CC2)nnc1C1CCC(=O)NC1=O (stereo partly shown) [PRTA-04]
< 1 µM,50 to 85%,N#Cc1ccc(O[C@H]2CC[C@H](NC(=O)c3ccc(N4CCC(CN5CC6(C5)CN(c5ccc(C7CCC(=O)NC7=O)nn5)C6)CC4)cc3)CC2)cc1Cl (stereo partly shown) [PRTA-05]
< 1 µM,> 85%,N#Cc1ccc(O[C@H]2CC[C@H](NC(=O)c3ccc(N4CCC(n5cc(C#Cc6ccc(C7CCC(=O)NC7=O)nn6)cn5)CC4)cc3)CC2)cc1Cl (stereo partly shown) [PRTA-06]
